# Experiments:
# [1] = test system: MCF-7 secondary mammospheres; assay: cells; type: cell-based; details: Homo sapiens, MCF7, 120 h
# Method: Adherent cells were gently trypsinized, (0.05% trypsin/EDTA) washed twice in PBS and filtered through a […] cell sieve to obtain a single cell suspensions. Cells were diluted to a concentration of 10,000 cell/ml in serum-free phenol-red free MEBM (MEGM Bulletkit, Lonza) supplemented with 5 μg/ml bovine insulin, 20 ng/ml recombinant epidermal growth factor, 20 ng/ml basic fibroblast growth factor (Gibco), 1×B27 supplement, 0.5 μg/ml hydrocortisone (MEGM Bulletkit, Lonza). For MDA-MB-231 mammosphere cultures serum-free phenol red-free CnT-27 medium with growth additives (CellnTEC Advanced cell systems, Bern, Switzerland) was used as previously described. 0.1 ml was seeded per well of a Ultralow attachment 96 well plates. The following day the indicated doses of GR-24 (ppm) or vehicle alone (0.6% acetone f/c) were added. Media was replenished every 3-4 days. Self-renewal capacity of the mammospheres was determined by re-plating and producing further generations of mammospheres. Secondary mammospheres were cultivated by dissociation (trypsinization with gently vortexing) of 10-14 day old primary mammospheres. Single cell suspensions were obtained as described above.
# Mammosphere viability was assessed by XTT assay (ATCC). 5 days after addition of the indicated concentrations of GR-24, cell viability was determined. […] To further investigate GR-24 induced inhibition of mammosphere formation, the expression of breast stem cells markers were examined.
# [2] = test system: Arabidopsis thaliana wild type root tips; assay: Root-tip structure and cellular morphology; type: in vivo; details: WT seedlings
# Method: Seeds of homozygous lines of Arabidopsis thaliana wild type (WT; Columbia; Col-0) and max2-1 mutant (http://abrc.osu.edu/) were surface-sterilized and germinated on 1/2 Murashige and Skoog (MS) plates supplemented with 1% sucrose and solidified with 0.7% agar. Plates were incubated vertically in the dark at 4° C. for two days to synchronize germination. Three days after germination, seedlings were gently transferred using forceps to 1/2 MS plates containing various concentrations of GR-24 as a mixture of four diastereomers: (±)-GR-24 and (±)-2′-epi-GR-24. The root tip of the transferred seedling was marked on the plates. The plates remained unsealed to prevent accumulation of gases (e.g., ethylene), and were positioned in an upright 45° position, and incubated at 22° C. with a light intensity of […] m-2 s-1 provided by white fluorescent tubes and under a photoperiod of 16 hours exposure to light/8 hours in the dark for 6-12 days. […] GR-24, ST-357 and ST-362 were initially dissolved in acetone to give a 4.5 mM, 10 μM and 10 μM solutions, respectively, which were then further diluted with double-distilled sterile water (DDW). […] Where differences were recorded between non-treated and acetone controls, the comparison was made between GR-24, ST-357 and ST-362-treated and acetone-treated roots. […]
# MDA-MB-436 = assay: Cell cycle analysis (propidium iodide, flow cytometry); type: cell-based, human; details: 10 ppm, 48 hours
# Method: (§1) Adherent cells were trypsinyzed, washed twice with PBS and filtered through a […] cell sieve. DNA content was assessed by flow cytometry. Cells were seeded at densities of 1.5×10^5 cells (MDA-MB-231, MDA-MB-436), or 4×10^5 cells (MCF-7 and MCF10A), or 2×10^5 cells (SW480, HT-29), or 5×10^5 cells (HCT116), per well in DMEM with 10% FBS in 6-well plate culture dishes. […] After 48 hours, cells were washed twice with PBS (pH 7.4), centrifuged at 360 g for 10 minutes at 4° C., and fixed in chilled ethanol (70%; v/v in PBS) with gentle vortex mixing. To determine their DNA contents, the cells were stained with 40 μg/ml propidium iodide (hereinafter PI) and analyzed using a FACSCalibur flow cytometer and CellQuest analysis software (Becton Dickinson, San Jose, Calif.). Where phosphoHistone-H3 staining was carried out, cells were incubated with polyclonal antibody against phosphoHistone H3 and then with secondary Goat anti-rabbit IgG-conjugated to FITC prior to PI staining.
# MCF-7 = assay: as above; type: cell-based, human; details: 10 ppm, 48 hours
# Method: as §1
# Cyclin B1 mRNA = assay: Quantitative Real-time PCR of Cyclin B1 mRNA; type: cell-based, human
# Method: Primers were designed using PrimerQuest software (Integrated DNA Technologies). RNA was extracted using Trizol (Invitrogen, Carlsbad, Calif., USA) using the manufacturer's protocol. 1 μg RNA was reverse-transcribed in a total volume of 20 μl using the Superscript First strand cDNA synthesis kit (Invitrogen). PCR was performed in triplicate using an ABI-Prism 7900 instrument (Applied Biosystems, Foster City, Calif.) and SYBR Green I detection (Applied Biosystems) according to the manufacturer's protocol. The expression of each target gene was normalized to the expression of GAPDH RNA and is presented as the ratio of the target gene to GAPDH RNA, expressed as 2-ΔCt, where Ct is the threshold cycle and ΔCt=Ct Target−Ct GAPDH.
# No change in cyclin B1 levels were detected at earlier time points. The dephosphorylation of Cdk1 (Cdc2) at Thr14 is a critical event for its activation, permitting mitotic entry. Cdk1 protein levels remained unaltered, as did pT14Cdc2 levels (FIG. 17B). Quantitative Real-time PCR was carried out to determine whether Cyclin B1 inhibition was partially at the transcriptional level.
# [3] = read-out: Mammosphere viability
SMILES,"viability at 2.5 ppm [1, 3]","viability at 5 ppm [1, 3]",cytotoxicity at 5 ppm ([1]; read-out: Reduction of viability),Root tip morphology ([2]; 13.5 μM exogenously supplied),Starch granules in the columella cells ([2]; 27 μM),Increase in the sub-G1/apoptotic fraction compared to vehicle (MDA-MB-436),Change in the subG1 fraction (MCF-7),"Cyclin B1 mRNA compared to vehicle controls (Cyclin B1 mRNA; A549, 10 ppm)","Cyclin B1 mRNA compared to vehicle controls (Cyclin B1 mRNA; HCT116, 10 ppm)"
"CC1=C[C@H](O/C=C2/C(=O)O[C@@H]3c4ccccc4C[C@H]23)OC1=O (relative stereo) [GR-24, (3aR*,8bS*,E)-3-(((R*)-4-methyl-5-oxo-2,5-dihydrofuran-2-yloxy)methylene)-3,3a,4,8b-tetrahydro-2H-indeno[1,2-b]furan-2-one]",68.6%,16.4%,~80%,deformation of the root tips,abolished the starch granules,3.4 fold,no change,–,–
"CC1=CC(O/C=C2\Cc3c(n(C)c4cc(-c5cccs5)ccc34)C2=O)OC1=O (racemic) [MEB-55, (±) 2E-4-methyl-2-(4-methyl-5-oxo-2,5-dihydrofuran-2-yloxymethylene)-6-thiophen-2-yl-1,4-dihydro-2H-cyclopenta[b]indol-3-one]",–,–,–,–,–,–,–,two fold decrease,two fold decrease

# — patent US10208007B2, “Use of strigolactones and strigolactone analogs for treating proliferative conditions” (The State of Israel, Ministry of Agriculture & Rural …, priority 2011, dated 2019)
